From patent US10669235B2, “Indole derivatives and their use as protein kinase inhibitors” (RESPIVERT LIMITED, priority 2016, dated 2020)
Where a name gives a salt, the structure may show the parent alone.

Legend:
[1] = test system: MRC5 cells; experiment: Cell viability assay in MRC5 cells (MTT)
[2] = target: T1, PDGFRβ (Homo sapiens (Human), UniProt P09619); experiment: PDGFRβ enzyme inhibition (ADP-Glo assay); assay type: biochemical; settings: mean, n = 2 (nintedanib n = 34)
[3] = PAMPA permeability assay; assay type: in vitro ADME; settings: pH 7, PAMPA; for Papp at 5 h, 10 µM: pH 7, 10 μM
[4] = target: T1, PDGFRβ; experiment: PDGF-BB induced phosphorylation of PDGFRβ in fibroblasts (MRC5, HTRF); assay type: cell-based; settings: MRC5 cells, PDGFBB stimulation; read-out: PDGFBB-induced PDGFRβ phosphorylation in MRC5 cells (IC50)

T1 sequence (P09619 33-1106): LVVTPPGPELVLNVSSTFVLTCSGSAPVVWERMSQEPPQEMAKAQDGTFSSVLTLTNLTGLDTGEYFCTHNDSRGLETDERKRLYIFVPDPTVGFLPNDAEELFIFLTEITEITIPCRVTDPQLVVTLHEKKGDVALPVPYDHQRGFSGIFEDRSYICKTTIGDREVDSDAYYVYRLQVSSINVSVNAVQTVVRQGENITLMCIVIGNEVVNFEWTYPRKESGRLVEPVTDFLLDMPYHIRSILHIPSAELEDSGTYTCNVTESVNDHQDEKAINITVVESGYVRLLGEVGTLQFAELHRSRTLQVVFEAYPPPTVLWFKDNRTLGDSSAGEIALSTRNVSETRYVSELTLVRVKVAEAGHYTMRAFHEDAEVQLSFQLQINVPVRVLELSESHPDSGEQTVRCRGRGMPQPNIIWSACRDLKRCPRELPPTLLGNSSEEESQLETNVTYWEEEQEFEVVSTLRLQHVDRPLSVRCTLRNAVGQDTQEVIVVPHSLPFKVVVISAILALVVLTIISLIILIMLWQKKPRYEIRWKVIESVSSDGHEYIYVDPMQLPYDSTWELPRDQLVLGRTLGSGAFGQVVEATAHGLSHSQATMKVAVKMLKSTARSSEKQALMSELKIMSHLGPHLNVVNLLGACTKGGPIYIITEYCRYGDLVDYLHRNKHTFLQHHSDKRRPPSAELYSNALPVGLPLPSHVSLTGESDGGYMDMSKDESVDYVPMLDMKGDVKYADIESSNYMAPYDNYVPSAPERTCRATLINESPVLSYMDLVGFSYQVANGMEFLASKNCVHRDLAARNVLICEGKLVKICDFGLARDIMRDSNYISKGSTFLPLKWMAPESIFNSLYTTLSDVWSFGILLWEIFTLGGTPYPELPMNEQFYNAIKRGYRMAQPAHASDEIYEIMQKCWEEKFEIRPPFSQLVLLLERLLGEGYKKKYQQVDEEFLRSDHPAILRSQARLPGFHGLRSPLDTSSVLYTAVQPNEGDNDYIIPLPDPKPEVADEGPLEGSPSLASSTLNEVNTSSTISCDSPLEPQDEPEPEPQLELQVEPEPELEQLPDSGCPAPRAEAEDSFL

SMILES | Cell viability at 100 nM (%) [1] [%] | Cell viability at 300 nM (%) [1] [%] | Cell viability at 1000 nM (%) [1] [%] | Ki [2] [nM] | recovery at 5 hr, 10 μM [3] [%] | Papp at 5 h, 10 µM [3] [×10⁻⁶ cm/s] | IC50 [4] [nM]
COC(=O)c1cc2c(cc1C)/C(=C(/Nc1ccc(S(=O)(=O)NCCN(C)C)cc1)c1ccccc1)C(=O)N2 [Example 25, (Z)-Methyl 3-(((4-(N-(2-(dimethylamino)ethyl)sulfamoyl)phenyl)amino)(phenyl)methylene)-5-methyl-2-oxoindoline-6-carboxylate, formate] | 83.2 | 74.7 | 55.4 | 11.7 | 105 | 11 | 24.2
COC(=O)c1cc2c(cc1C)/C(=C(/Nc1ccc(S(=O)(=O)N3CCN(CCO)CC3)cc1)c1ccccc1)C(=O)N2 [Example 26, (Z)-Methyl 3-(((4-((4-(2-hydroxyethyl)piperazin-1-yl)sulfonyl)phenyl)amino)(phenyl)methylene)-5-methyl-2-oxoindoline-6-carboxylate, formate] | 84.4 | 91.6 | 57.6 | 45 | 96.2 | 10.3 | 18.1
COC(=O)c1cc2c(cc1C)/C(=C(/Nc1ccc(C(=O)N[C@H]3CCCN(C)C3)cc1)c1ccccc1)C(=O)N2 [Example 27, (S,Z)-Methyl 5-methyl-3-(((4-((1-methylpiperidin-3-yl)carbamoyl)phenyl)amino)(phenyl)methylene)-2-oxoindoline-6-carboxylate, 0.5 formate] | 106.5 | 112.6 | 82.9 | 18 | 54.3 | 16.8 | 43
COC(=O)c1cc2c(cc1C)/C(=C(/Nc1ccc(C(=O)NCCCN3CCOCC3)cc1)c1ccccc1)C(=O)N2 [Example 29, (Z)-Methyl 5-methyl-3-(((4-((3-morpholinopropyl)carbamoyl)phenyl)amino)(phenyl)methylene)-2-oxoindoline-6-carboxylate] | 116.9 | 72.5 | 60.8 | 11.2 | 72.1 | 0.373 | 3.65
COC(=O)c1cc2c(cc1C)/C(=C(/Nc1ccc(C(=O)N3CCC4(CC3)C(=O)NCCN4C)cc1)c1ccccc1)C(=O)N2 [Example 30, (Z)-Methyl 5-methyl-3-(((4-(1-methyl-5-oxo-1,4,9-triazaspiro[5.5]undecane-9-carbonyl)phenyl)amino)(phenyl)methylene)-2-oxoindoline-6-carboxylate] | 107.2 | 85.3 | 16.4 | 10 | 87.2 | 0.0235 | 6.02
COC(=O)c1cc2c(cc1C)/C(=C(/Nc1ccc(C(=O)N3CCC(C(=O)NCCN(C)C)CC3)cc1)c1ccccc1)C(=O)N2 [Example 31, (Z)-Methyl 3-(((4-(4-((2-(dimethylamino)ethyl)carbamoyl)piperidine-1-carbonyl)phenyl)amino)(phenyl)methylene)-5-methyl-2-oxoindoline-6-carboxylate, 0.4 formate] | 69.3 | 47.3 | 34.3 | 4.83 | 66.2 | 0.00531 | 5.52
COC(=O)c1cc2c(cc1C)/C(=C(/Nc1ccc(C(=O)N(CCO)CCN(C)C)cc1)c1ccccc1)C(=O)N2 [Example 32, (Z)-Methyl 3-(((4-((2-(dimethylamino)ethyl)(2-hydroxyethyl)carbamoyl)phenyl)amino)(phenyl)methylene)-5-methyl-2-oxoindoline-6-carboxylate, 0.3 formate] | 99.3 | 129.3 | 49.4 | 5.02 | 59.6 | 0.0217 | 4.53
COC(=O)c1cc2c(cc1C)/C(=C(/Nc1ccc(C(=O)N3CC[C@@H](CN(C)C)[C@H](O)C3)cc1)c1ccccc1)C(=O)N2 [Example 33, (Z)-Methyl 3-(((4-((3S,4S)-4-((dimethylamino)methyl)-3-hydroxypiperidine-1-carbonyl)phenyl)amino)(phenyl)methylene)-5-methyl-2-oxoindoline-6-carboxylate] | 86.6 | 63.1 | 19.8 | 6.82 | 69.1 | 0.0269 | 2.32
COC(=O)c1cc2c(cc1C)/C(=C(/Nc1ccc(C(=O)NCCN3CCCN(C(C)=O)CC3)cc1)c1ccccc1)C(=O)N2 [Example 34, (Z)-Methyl 3-(((4-((2-(4-acetyl-1,4-diazepan-1-yl)ethyl)carbamoyl)phenyl)amino)(phenyl)methylene)-5-methyl-2-oxoindoline-6-carboxylate] | 82.9 | 74.4 | 16.2 | 14.4 | 41.1 | 0.00748 | 4.71
COCCN(C)CCNC(=O)c1ccc(N/C(=C2\C(=O)Nc3cc(C(=O)OC)c(C)cc32)c2ccccc2)cc1 [Example 35, (Z)-Methyl 3-(((4-((2-((2-methoxyethyl)(methyl)amino)ethyl)carbamoyl)phenyl)amino)(phenyl)methylene)-5-methyl-2-oxoindoline-6-carboxylate, 0.5 formate] | 99.8 | 122.5 | 99.1 | 17 | 79.2 | 10.7 | 17.3
COC(=O)c1cc2c(cc1C)/C(=C(/Nc1ccc(C(=O)NCC3(N(C)C)CCOCC3)cc1)c1ccccc1)C(=O)N2 [Example 36, (Z)-Methyl 3-(((4-(((4-(dimethylamino)tetrahydro-2H-pyran-4-yl)methyl)carbamoyl)phenyl)amino)(phenyl)methylene)-5-methyl-2-oxoindoline-6-carboxylate] | 87.3 | 77.2 | 69.6 | 15.9 | 77.4 | 8.96 | 9.96
COC(=O)c1cc2c(cc1C)/C(=C(/Nc1ccc(C(=O)N3CCC(O)(CN4CCCC4)CC3)cc1)c1ccccc1)C(=O)N2 [Example 37, (Z)-Methyl-3-(((4-(4-hydroxy-4-(pyrrolidin-1-ylmethyl)piperidine-1-carbonyl)phenyl)amino)(phenyl)methylene)-5-methyl-2-oxoindoline-6-carboxylate, formate] | 93.6 | 83.4 | 18.4 | 7.54 | 68.2 | 0.0542 | 5.28
COC(=O)c1cc2c(cc1C)/C(=C(/Nc1ccc(C(=O)N3CCC(CO)(CN(C)C)CC3)cc1)c1ccccc1)C(=O)N2 [Example 38, (Z)-Methyl-3-(((4-(4-((dimethylamino)methyl)-4-(hydroxymethyl)piperidine-1-carbonyl)phenyl)amino)(phenyl)methylene)-5-methyl-2-oxoindoline-6-carboxylate] | 70.7 | 63 | 4.2 | 4.79 | 70.3 | 0.0269 | 1.7
COCCNC(=O)CN1CCN(C(=O)c2ccc(N/C(=C3\C(=O)Nc4cc(C(=O)OC)c(C)cc43)c3ccccc3)cc2)CC1 [Example 39, (Z)-Methyl-3-(((4-(4-(2-((2-methoxyethyl)amino)-2-oxoethyl)piperazine-1-carbonyl)phenyl)amino)(phenyl)methylene)-5-methyl-2-oxoindoline-6-carboxylate] | 96.2 | 73.3 | 36.7 | 14.1 | 85.7 | 0.633 | 5.95
COC(=O)c1cc2c(cc1C)/C(=C(/Nc1ccc(C(=O)NCC3(N(C)C)CCC3)cc1)c1ccccc1)C(=O)N2 [Example 40, (Z)-Methyl 3-(((4-(((1-(dimethylamino)cyclobutyl)methyl)carbamoyl)phenyl)amino)(phenyl)methylene)-5-methyl-2-oxoindoline-6-carboxylate, 0.3 formate] | 95.4 | 88 | 82.9 | 12.8 | 56 | 26.5 | 13.4
COC(=O)c1cc2c(cc1C)/C(=C(/Nc1ccc(C(=O)N3CCC4(CC3)C(=O)NCCCN4C)cc1)c1ccccc1)C(=O)N2 [Example 43, (Z)-Methyl-5-methyl-3-(((4-(7-methyl-12-oxo-3,7,11-triazaspiro[5.6]dodecane-3-carbonyl)phenyl)amino)(phenyl)methylene)-2-oxoindoline-6-carboxylate] | – | 58.8 | 6.4 | 25.2 | – | 0.865 | 2.31
COC(=O)c1cc2c(cc1C)/C(=C(/Nc1ccc(C(=O)NCCN3CCN(S(C)(=O)=O)CC3)cc1)c1ccccc1)C(=O)N2 [Example 44, (Z)-Methyl-5-methyl-3-(((4-((2-(4-(methylsulfonyl)piperazin-1-yl)ethyl)carbamoyl)phenyl)amino)(phenyl)methylene)-2-oxoindoline-6-carboxylate] | 98.4 | 78.4 | 60.4 | 17.8 | 71.7 | 0.00879 | 3.33
